According to publication PMC9503459, “Antifungal Activity, Structural Stability, and Immunomodulatory Effects on Human Immune Cells of Defensin from the Lentil Lens culinaris” (Membranes, 2022):
No end group written: not given here.

What was measured:
[1] = tested on: clinical isolate of Candida albicans (v47a3); experiment: Antifungal microdilution assay, C. albicans; assay type: cell-based; settings: 24 h; for inhibition of the growth: C. albicans
Procedure: The clinical isolates of Candida albicans (v47a3), C. krusei (225/2) and C. glabrata (252/2) were collected from patients with human immunodeficiency virus (HIV) infection and provided by G.N. Gabrichevsky Research Institute for Epidemiology and Microbiology (Moscow, Russia). Strains stocks were kept at −70 ℃ in 10% nonfat milk with 10% glycerol.
Antifungal susceptibility tests were performed by the microdilution method using 96-well microplates. Yeast cells in stock were inoculated onto modified YPD (yeast extract 5 g/L, peptone 10 g/L, glucose 10 g/L) agar plates, and incubated for 24 h at 37 ℃. After replating, cells were cultured in modified YPD broth at 37 ℃ to optical density 1.0 at 540 nm. Further, yeast cells in modified YPD broth at concentration of 5 × 10^4 cells/mL were mixed with equal volumes of serial two-fold dilutions of the peptide in water which started at the highest peptide concentration of 200 µM. Final peptide concentrations in the wells were 100, 50, 25, 12.5, 6.25, 3.125, and 1.56 μM. Controls without defensin were also tested. Plates were incubated at 30 ℃ during 24 h. Yeast growth was estimated using inverted microscope as well as by measuring the optical density at 540 nm. Percentage of growth inhibition was defined as: growth inhibition (%) = ((Acontrol − Asample)/Acontrol) × 100%. All of the experiments were performed twice in triplicate. The t-test was performed to study the statistical difference (p-value) between the means of controls and samples with different peptide concentrations. The experiment with lentil Lens culinaris lipid transfer protein Lc-LTP2 was carried out for comparison.

[2] = tested on: proteolytic enzymes of Candida albicans; experiment: Sensitivity to proteolytic enzymes of Candida albicans (cell lysate, SDS-PAGE); assay type: in vitro ADME; settings: C. albicans lysate 10^9 cells/mL, up to 72 h, SDS-PAGE
Procedure: For study of Lc-def sensitivity to the clinical isolate of C. albicans, lysates of yeast cells in different concentration and pH were used basically as previously described for rhesus macaque θ-defensin 1 [22]. Cells were inoculated onto modified YPD medium and grown at 37 ℃ for 48 h before reaching the stationary phase of growth. Cells were harvested by centrifugation, washed two times in sterile phosphate buffered saline (PBS), pH 7.2, or sterile 40 mM sodium acetate, pH 4.0, and resuspended in the corresponding buffer to final concentrations of 1 × 10^9 cells/mL or 1 × 10^3 cells/mL. Two freeze-thaw cycles in liquid nitrogen were used for cell disruption, and supernatants were collected following centrifugation. Supernatants (12.5 μL) were mixed with water solutions (37.5 μL) of Lc-def, α-casein, Psd1, or LL-37 in concentration of 0.67 mg/mL and incubated at 37 ℃ for 72 or 24 h in the case of high or low cell concentration, respectively. To study the possible influence of Lc-def and Psd1 on the degradation process, supernatants (12.5 μL) were mixed with both α-casein or LL-37 in concentration of 1 mg/mL (25 μL) and Lc-def or Psd1 in concentration of 2 mg/mL (12.5 μL). As negative controls, α-casein and peptides were mixed with buffers as well as supernatants were mixed with water without the proteins. The samples were mixed with sample buffer without β-mercaptoethanol (BME), heated at 100 ℃ for 2 min, and analyzed by sodium dodecyl sulfate polyacrylamide gel electrophoresis (SDS-PAGE). Some independent experiments were performed in each case.

## Lc-def: defensin from lentil Lens culinaris seeds (UniProt:B3F051), recombinant, overexpressed in Escherichia coli (KTCENLSDSFKGPCIPDGNCNKHCKEKEHLLSGRCRDDFRCWCTRNC; disulfide (positions not given here); ends not checked; also: disulfide bonds present, pairing not given here; UniProt B3F051 28-74, looked up)
[1]; C. albicans clinical isolate, microdilution, modified YPD, 30 °C, OD540, twice in triplicate, read-out: concentration causing 50% growth inhibition
  IC50: 25 to 50 µM
[1]; 50 μM peptide
  inhibition of the growth: approximately 80%
[1]; 100 μM peptide
  inhibition of the growth: < 100%
[2]; 40 mM sodium acetate pH 4.0, 37 °C
  stability to proteolysis by yeast: stable
[2]; PBS pH 7.2, 37 °C, densitometry, immunoblotting
  stability to proteolysis by yeast: stable
